The results in this text go back to patent US8163724B2, “Glucocorticosteroids, processes for their preparation, pharmaceutical compositions containing them and their use in therapy” (AstraZeneca AB, priority 2007, dated 2012).

This assay concerns the target T1, recombinant human GR (Homo sapiens, UniProt P04150).
T1 construct: purchased Panvera/Invitrogen P2812 (kit P2893)
T1 sequence (P04150 1-777): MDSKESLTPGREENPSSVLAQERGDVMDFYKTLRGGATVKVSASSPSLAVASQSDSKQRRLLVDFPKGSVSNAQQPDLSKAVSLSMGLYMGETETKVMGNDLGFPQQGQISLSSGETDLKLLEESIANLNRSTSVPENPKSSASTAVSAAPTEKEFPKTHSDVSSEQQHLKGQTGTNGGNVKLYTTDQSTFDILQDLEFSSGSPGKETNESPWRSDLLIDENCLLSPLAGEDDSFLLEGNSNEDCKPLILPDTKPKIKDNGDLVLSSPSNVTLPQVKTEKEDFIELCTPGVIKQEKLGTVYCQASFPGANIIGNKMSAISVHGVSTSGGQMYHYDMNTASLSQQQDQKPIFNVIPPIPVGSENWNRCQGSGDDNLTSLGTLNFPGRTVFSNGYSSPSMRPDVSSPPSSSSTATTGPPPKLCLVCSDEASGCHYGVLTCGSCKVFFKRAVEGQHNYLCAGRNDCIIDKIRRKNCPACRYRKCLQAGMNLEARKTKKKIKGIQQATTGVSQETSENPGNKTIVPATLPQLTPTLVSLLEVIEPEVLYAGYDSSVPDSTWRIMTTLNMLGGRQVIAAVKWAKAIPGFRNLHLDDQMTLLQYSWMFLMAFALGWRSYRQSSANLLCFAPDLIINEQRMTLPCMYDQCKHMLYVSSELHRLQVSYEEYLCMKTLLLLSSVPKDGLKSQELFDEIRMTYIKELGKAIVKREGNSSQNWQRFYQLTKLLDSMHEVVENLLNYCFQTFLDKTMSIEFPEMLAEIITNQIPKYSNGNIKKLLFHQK
Nature of the assay: Human Glucocorticoid Receptor (GR) Assay (fluorescence polarization, Panvera/Invitrogen kit). Format: binding. The note with it: fluorescence polarization; GS Red tracer; 2 hours at room temperature; 100% control 10 μM Dexamethasone; read-out: Inhibition of GR binding, IC50. In a few lines:
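Fluorescence polarization competition with recombinant GR and GS Red fluorescent ligand plus stabilizing peptide and DTT in potassium phosphate/sodium molybdate/EDTA buffer with DMSO. Incubated 2 hours at room temperature in the dark; 0% control DMSO, 100% control 10 μM dexamethasone.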
Regarding `Cc1ccoc1C(=O)O[C@]1(C(=O)SCC#N)CC[C@H]2[C@@H]3CCC4=Cc5c(cnn5-c5ccc(F)cc5)C[C@]4(C)[C@H]3[C@@H](O)C[C@@]21C` [Example 56, (1R,3aS,3bS,10aR,10bS,11S,12aS)-1-{[(Cyanomethyl)thio]carbonyl}-7-(4-fluorophenyl)-11-hydroxy-10a,12a-dimethyl-1,2,3,3a,3b,4,5,7,10,10a,10b,11,12,12a-tetradecahydropcyclopenta[5,6]naphtho[1,2-f]indazol-1-yl 3-methylfuran-2-carboxylate], the IC50 turned out to be 6.5 nM.

With `Cc1ccoc1C(=O)O[C@]1(C(=O)SCF)CC[C@H]2[C@@H]3CCC4=Cc5c(cnn5-c5ccc(F)cc5)C[C@]4(C)[C@H]3[C@@H](O)C[C@@]21C` [Example 57, (1R,3aS,3bS,10aR,10bS,11S,12aS)-1-{[(Fluoromethyl)thio]carbonyl}-7-(4-fluorophenyl)-11-hydroxy-10a,12a-dimethyl-1,2,3,3a,3b,4,5,7,10,10a,10b,11,12,12a-tetradecaphydrocyclopenta[5,6]naphtho[1,2-f]indazol-1-yl 3-methylfuran-2-carboxylate], the 50% inhibitory concentration (IC50) amounted to 3.8 nM.

On to `Cc1ccoc1C(=O)O[C@]1(C(=O)SCCO)CC[C@H]2[C@@H]3CCC4=Cc5c(cnn5-c5ccc(F)cc5)C[C@]4(C)[C@H]3[C@@H](O)C[C@@]21C` [Example 58, (1R,3aS,3bS,10aR,10bS,11S,12aS)-7-(4-Fluorophenyl)-11-hydroxy-1-{[(2-hydroxy-ethyl)thio]carbonyl}-10a,12a-dimethyl-1,2,3,3a,3b,4,5,7,10,10a,10b,11,12,12a-tetradecahydrocyclopenta[5,6]naphtho[1,2-f]indazol-1-yl 3-methylfuran-2-carboxylate], for which the half-inhibitory concentration (IC50) stood at 5.5 nM.

In the case of `C[C@]12Cc3cnn(-c4ccc(F)cc4)c3C=C1CC[C@@H]1[C@@H]2[C@@H](O)C[C@@]2(C)[C@H]1CC[C@]2(OC(=O)c1ccno1)C(=O)SCC#N` [Example 59, (1R,3aS,3bS,10aR,10bS,11S,12aS)-1-{[(Cyanomethyl)thio]carbonyl}-7-(4-fluorophenyl)-11-hydroxy-10a,12a-dimethyl-1,2,3,3a,3b,4,5,7,10,10a,10b,11,12,12a-tetradecahydropcyclopenta[5,6]naphtho[1,2-f]indazol-1-yl isoxazole-5-carboxylate], the half-maximal inhibitory concentration (IC50) is 3.9 nM.

In the case of `C[C@]12Cc3cnn(-c4ccc(F)cc4)c3C=C1CC[C@@H]1[C@@H]2[C@@H](O)C[C@@]2(C)[C@H]1CC[C@]2(OC(=O)c1ccno1)C(=O)SCF` [Example 60, (1R,3aS,3bS,10aR,10bS,11S,12aS)-1-{[(Fluoromethyl)thio]carbonyl}-7-(4-fluorophenyl)-11-hydroxy-10a,12a-dimethyl-1,2,3,3a,3b,4,5,7,10,10a,10b,11,12,12a-tetradecahydropcyclopenta[5,6]naphtho[1,2]-indazol-1-yl isoxazole-5-carboxylate], the IC50 worked out at 4.5 nM.

Regarding `C[C@]12Cc3cnn(-c4ccc(F)cc4)c3C=C1CC[C@@H]1[C@@H]2[C@@H](O)C[C@@]2(C)[C@H]1CC[C@]2(OC(=O)c1ccno1)C(=O)SCCO` [Example 61, (1R,3aS,3bS,10aR,10bS,11S,12aS)-7-(4-Fluorophenyl)-11-hydroxy-1-{[(2-hydroxy-ethyl)thio]carbonyl}-10a,12a-dimethyl-1,2,3,3a,3b,4,5,7,10,10a,10b. 1,12,12a-tetradecahydrocyclopenta[5,6]naphtho[1,2-f]indazol-1-yl isoxazole-5-carboxylate], the IC50 was 8.3 nM.

Regarding `COCCC(=O)O[C@]1(C(=O)SCC#N)CC[C@H]2[C@@H]3CCC4=Cc5c(cnn5-c5ccc(F)cc5)C[C@]4(C)[C@H]3[C@@H](O)C[C@@]21C` [Example 62, (1R,3aS,3bS,10aR,10bS,11S,12aS)-1-{[(Cyanomethyl)thio]carbonyl}-7-(4-fluorophenyl)-11-hydroxy-10a,12a-dimethyl-1,2,3,3a,3b,4,5,7,10,10a,10b,11,12,12a-tetradecahydrocyclopenta[5,6]naphtho[1,2-f]indazol-1-yl 3-methoxypropanoate], the concentration for half-maximal inhibition (IC50) is 2.2 nM.

For the compound `COCCC(=O)O[C@]1(C(=O)SCF)CC[C@H]2[C@@H]3CCC4=Cc5c(cnn5-c5ccc(F)cc5)C[C@]4(C)[C@H]3[C@@H](O)C[C@@]21C` [Example 63, (1R,3aS,3bS,10aR,10bS,11S,12aS)-1-{[(Fluoromethyl)thio]carbonyl}-7-(4-fluorophenyl)-11-hydroxy-10a,12a-dimethyl-1,2,3,3a,3b,4,5,7,10,10a,10b,11,12,12a-tetradecahydropcyclopenta[5,6]naphtho[1,2-f]indazol-1-yl 3-methoxypropanoate], the half-inhibitory concentration (IC50) amounted to 3.3 nM.

With `CSC(=O)[C@@]1(OC(=O)c2ccco2)CC[C@H]2[C@@H]3CCC4=Cc5c(cnn5-c5ccc(F)cc5)C[C@]4(C)[C@H]3[C@@H](O)C[C@@]21C` [Example 64, (1R,3aS,3bS,10aR,10bS,11S,12aS)-7-(4-Fluorophenyl)-11-hydroxy-10a,12a-dimethyl-1-[(methylthio)carbonyl]-1,2,3,3a,3b,4,5,7,10,10a,10b,11,12,12a-tetradecahydropcyclopenta[5,6]naphtho[1,2-f]indazol-1-yl furan-2-carboxylate], the half-inhibitory concentration (IC50) is 5.8 nM.

As for `C[C@]12Cc3cnn(-c4ccc(F)cc4)c3C=C1CC[C@@H]1[C@@H]2[C@@H](O)C[C@@]2(C)[C@H]1CC[C@]2(OC(=O)c1ccco1)C(=O)OCC#N` [Example 65, Cyanomethyl(1R,3aS,3bS,10aR,10bS,11S,12aS)-7-(4-fluorophenyl)-1-[(furan-2-ylcarbonyl)oxy]-11-hydroxy-10a,12a-dimethyl-1,2,3,3a,3b,4,5,7,10,10a,10b,11,12,12a-tetradecahydrocyclopenta[5,6]naphtho[1,2-f]indazole-1-carboxylate], the IC50 was determined as 2.6 nM.

Consider `COC(=O)[C@@]1(OC(=O)c2ccco2)CC[C@H]2[C@@H]3CCC4=Cc5c(cnn5-c5ccc(F)cc5)C[C@]4(C)[C@H]3[C@@H](O)C[C@@]21C` [Example 66, Methyl (1R,3aS,3bS,10aR,10bS,11S,12aS)-7-(4-fluorophenyl)-1-[(furan-2-yl-carbonyl)oxy]-11-hydroxy-10a,12a-dimethyl-1,2,3,3a,3b,4,5,7,10,10a,10b,11,12,12a-tetradecahydrocyclopenta[5,6]naphtho[1,2-f]indazole-1-carboxylate], for which the IC50 was 3.3 nM.

On to `CCOC(=O)O[C@]1(C(=O)SCC#N)CC[C@H]2[C@@H]3CCC4=Cc5c(cnn5-c5ccc(F)cc5)C[C@]4(C)[C@H]3[C@@H](O)C[C@@]21C` [Example 67, S-(Cyanomethyl)(1R,3aS,3bS,10aR,10bS,11S,12aS)-1-[(ethoxycarbonyl)oxy]-7-(4-fluorophenyl)-11-hydroxy-10a,12a-dimethyl-1,2,3,3a,3b,4,5,7,10,10a,10b,11,12,12a-tetradecahydrocyclopenta[5,6]naphtho[1,2-f]indazole-1-carbothioate], for which the IC50 was 38 nM.

`CC(C)OC(=O)O[C@]1(C(=O)SCC#N)CC[C@H]2[C@@H]3CCC4=Cc5c(cnn5-c5ccc(F)cc5)C[C@]4(C)[C@H]3[C@@H](O)C[C@@]21C` [Example 68, S-(Cyanomethyl)(1R,3aS,3bS,10aR,10bS,11S,12aS)-7-(4-fluorophenyl)-11-hydroxy-10a,12a-dimethyl-1-{[(1-methylethoxy)carbonyl]oxy}-1,2,3,3a,3b,4,5,7,10,10a,10b,11,12,12a-tetradecahydrocyclopenta[5,6]naphtho[1,2-f]indazole-1-carbothioate]: the IC50 came to 12 nM.

With `CNC(=O)[C@@]1(OC(=O)c2ccco2)CC[C@H]2[C@@H]3CCC4=Cc5c(cnn5-c5ccc(F)cc5)C[C@]4(C)[C@H]3[C@@H](O)C[C@@]21C` [Example 69, (1R,3aS,3bS,10aR,10bS,11S,12aS)-7-(4-Fluorophenyl)-11-hydroxy-10a,12a-dimethyl-1-(methylcarbamoyl)-1,2,3,3a,3b,4,5,7,10,10a,10b,11,12,12a-tetradecahydropcyclopenta[5,6]naphtho[1,2-f]indazol-1-yl furan-2-carboxylate], the half-inhibitory concentration (IC50) came to 3 nM.

For `CNC(=O)[C@@]1(O)CC[C@H]2[C@@H]3CCC4=Cc5c(cnn5-c5ccc(F)cc5)C[C@]4(C)[C@H]3[C@@H](O)C[C@@]21C` [Example 70, (1R,3aS,3bS,10aR,10bS,11S,12aS)-7-(4-Fluorophenyl)-1,11-dihydroxy-N,10a,12a-trimethyl-1,2,3,3a,3b,4,5,7,10,10a,10b,11,12,12a-tetradecahydrocyclopenta[5,6]naphtho[1,2-f]indazole-1-carboxamide], the IC50 is 3.8 nM.
